The source of these data is PubChem BioAssay (NCI).

Test systems include LOX IMVI melanoma; SW-620 colon; HCC-2998 colon; CAKI-1 renal; MDA-MB-231 breast; SNB-19 CNS; M14 melanoma; MDA-MB-435; SF-539 CNS; A498 renal; DU-145 prostate; NCI-H460 lung.
What all share (experiment): growth of human tumour cells (NCI), 48 h

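In this assay, cells in 96-well plates receive the compound at five concentrations for 48 hours. Endpoints are linearly interpolated between the surrounding concentrations. TGI denotes the concentration required for complete inhibition of growth.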

On to `CC1OC(OC2C(O)COC(OC3C(C)OC(OC4C(OC(=O)[C@]56CCC(C)(C)C[C@@H]5C5=CCC7[C@@]8(C)C[C@H](O)[C@H](OC9OC(CO)C(O)C(O)C9O)[C@@](C)(CO)[C@@H]8CC[C@@]7(C)[C@]5(C)CC6)OCC(O)C4O)C(O)C3O)C2O)C(O)C(O)C1O` (some centres not stated), for which the TGI in the assay on LOX IMVI melanoma amounted to 46 µM; in the assay on SW-620 colon, 46.5 µM; in the assay on HCC-2998 colon, 38 µM; in the assay with CAKI-1 renal it was 32 µM; in the assay with MDA-MB-231 breast, 40.2 µM; in the assay with SNB-19 CNS, 38.7 µM. Further, the TGI is 41.9 µM in the assay with M14 melanoma; 57.7 µM in the assay on MDA-MB-435; 42.8 µM in the assay with SF-539 CNS; 36 µM in the assay on A498 renal; 37.5 µM with DU-145 prostate; 48.6 µM in the assay with NCI-H460 lung.
For `CC(C)(C)c1cc(/C=C(\C#N)C2=NCCO2)cc(C(C)(C)C)c1O`, the TGI is 18.8 µM with LOX IMVI melanoma; 18.5 µM in the assay on SW-620 colon; 8.77 µM in the assay on HCC-2998 colon; over 35.5 µM with CAKI-1 renal; 12.4 µM in the assay on MDA-MB-231 breast; 15.5 µM in the assay with SNB-19 CNS. Also, the TGI was 17 µM in the assay on M14 melanoma; 32.3 µM with MDA-MB-435; 12.2 µM in the assay on SF-539 CNS; 16.7 µM in the assay on A498 renal; over 40.9 µM with DU-145 prostate; 6.63 µM in the assay on NCI-H460 lung.
Take `OC1NC2Nc3ccccc3NC2NC1O` (configuration not stated): the TGI in the assay with LOX IMVI melanoma, with SW-620 colon, in the assay on HCC-2998 colon, with CAKI-1 renal, in the assay on MDA-MB-231 breast and in the assay with SNB-19 CNS was over 100 µM throughout. Besides, the TGI in the assay with M14 melanoma, in the assay on MDA-MB-435, in the assay on SF-539 CNS, in the assay on A498 renal, with DU-145 prostate and in the assay with NCI-H460 lung was over 100 µM in each case.
In the case of `O=C(O)c1nc2cc(Cl)ccc2[nH]c1=O`, the TGI in the assay on LOX IMVI melanoma, with SW-620 colon, with HCC-2998 colon, in the assay on CAKI-1 renal, in the assay on MDA-MB-231 breast and in the assay on SNB-19 CNS was over 100 µM in each case. Also, the TGI with M14 melanoma, in the assay on MDA-MB-435, in the assay on SF-539 CNS, in the assay on A498 renal, with DU-145 prostate and in the assay with NCI-H460 lung was over 100 µM each time.
On to `CCCCCCN(CCCCCC)CCC(=O)c1ccc2cc(Br)c3ccccc3c2c1`, for which the TGI in the assay with LOX IMVI melanoma is 98.3 µM; in the assay with SW-620 colon it was over 100 µM; in the assay with HCC-2998 colon it was over 100 µM; in the assay on CAKI-1 renal it was over 100 µM; in the assay on MDA-MB-231 breast, 67.4 µM; in the assay on SNB-19 CNS, over 100 µM. Moreover, the TGI with M14 melanoma was over 100 µM; in the assay on MDA-MB-435, 74.3 µM; with SF-539 CNS, 52.5 µM; in the assay on A498 renal it was over 100 µM; with DU-145 prostate, over 100 µM; in the assay on NCI-H460 lung, over 100 µM.
In the case of `CC(C)(C)OC(=O)NCC(CNC(=O)OC(C)(C)C)C(N)=O`, the TGI with LOX IMVI melanoma, in the assay with SW-620 colon, in the assay with HCC-2998 colon, in the assay on CAKI-1 renal, in the assay with MDA-MB-231 breast and in the assay on SNB-19 CNS was over 100 µM in each case. Further, the TGI with M14 melanoma, in the assay with MDA-MB-435, in the assay with SF-539 CNS, with A498 renal, in the assay with DU-145 prostate and in the assay on NCI-H460 lung was over 100 µM in each case.
On to `CC(NC1=NCCO1)c1ccccc1Cl` (configuration not stated), for which the TGI with LOX IMVI melanoma, in the assay on SW-620 colon, with HCC-2998 colon, in the assay on CAKI-1 renal, with MDA-MB-231 breast and with SNB-19 CNS was over 100 µM in each case. Also, the TGI with M14 melanoma, in the assay with MDA-MB-435, in the assay on SF-539 CNS, with A498 renal, in the assay with DU-145 prostate and in the assay on NCI-H460 lung was over 100 µM throughout.
Consider `COc1cc(C2C=C(c3ccccc3)Oc3cc4c(cc32)OCO4)cc(OC)c1OC` (configuration not stated), for which the TGI was over 54.8 µM in the assay with LOX IMVI melanoma; over 100 µM in the assay with SW-620 colon; over 100 µM in the assay on HCC-2998 colon; over 100 µM with CAKI-1 renal; over 32.2 µM with MDA-MB-231 breast; over 100 µM in the assay on SNB-19 CNS. Also, the TGI in the assay on M14 melanoma is over 100 µM; with MDA-MB-435 it was over 100 µM; in the assay with SF-539 CNS, 3.63 µM; in the assay on A498 renal, over 100 µM; in the assay on DU-145 prostate it was 4.58 µM; with NCI-H460 lung, over 100 µM.
`CCOP(=O)(OCC)Oc1c(OC)c2[nH]c(C(=O)OC)cc2c2c(C(=O)O)c[nH]c12`: the TGI in the assay on LOX IMVI melanoma, in the assay with SW-620 colon, in the assay with HCC-2998 colon, in the assay with CAKI-1 renal, in the assay on MDA-MB-231 breast and in the assay with SNB-19 CNS was over 100 µM in each case. The TGI in the assay with M14 melanoma, with MDA-MB-435, with SF-539 CNS, in the assay on A498 renal, in the assay with DU-145 prostate and in the assay with NCI-H460 lung was over 100 µM each time.
In the case of `CCCCSC1=N/C(=C\c2ccccc2O)C(=O)N1`, the TGI in the assay on LOX IMVI melanoma, with SW-620 colon, in the assay with HCC-2998 colon, in the assay on CAKI-1 renal, in the assay with MDA-MB-231 breast and with SNB-19 CNS was over 100 µM in each case. For the same compound, the TGI in the assay on M14 melanoma, with MDA-MB-435, in the assay on SF-539 CNS, in the assay with A498 renal, in the assay on DU-145 prostate and in the assay on NCI-H460 lung was over 100 µM each time.
For the compound `CN(O)C(=O)CCC(NC(=O)CCC(N)C(=O)O)C(=O)NCC(=O)O` (configuration not stated), the TGI in the assay with LOX IMVI melanoma, in the assay with SW-620 colon, in the assay with HCC-2998 colon, with CAKI-1 renal, in the assay with MDA-MB-231 breast and in the assay on SNB-19 CNS was over 100 µM each time. Also, the TGI with M14 melanoma, with MDA-MB-435, with SF-539 CNS, in the assay on A498 renal, in the assay on DU-145 prostate and in the assay with NCI-H460 lung was over 100 µM each time.
As to `S=C(NCc1ccccc1)Nc1sc(=NCc2ccccc2)nc2sc3c(c12)CCN(N1CCc2c(sc4nc(=NCc5ccccc5)sc(NC(=S)NCc5ccccc5)c24)C1)C3`, the TGI in the assay on LOX IMVI melanoma is over 100 µM; in the assay with SW-620 colon, over 72.5 µM; in the assay with HCC-2998 colon it was over 62 µM; with CAKI-1 renal it was over 75.9 µM; with MDA-MB-231 breast, over 44 µM; with SNB-19 CNS it was over 64.2 µM. For the same compound, the TGI was over 65.4 µM in the assay with M14 melanoma; over 100 µM in the assay on MDA-MB-435; over 45.9 µM in the assay on SF-539 CNS; over 67.6 µM with A498 renal; over 90.8 µM in the assay on DU-145 prostate; over 83.9 µM with NCI-H460 lung.
On to `C#C[C@]1(O)CC[C@H]2[C@@H]3CCC4=C/C(=N\OCCN5CCCCC5)CC[C@]4(C)[C@H]3CC[C@@]21C`, for which the TGI stood at 16.5 µM in the assay on LOX IMVI melanoma; 29.9 µM with SW-620 colon; 35.2 µM in the assay with HCC-2998 colon; 20.5 µM in the assay on CAKI-1 renal; 29 µM in the assay with MDA-MB-231 breast; 19.1 µM in the assay on SNB-19 CNS. Further, the TGI in the assay on M14 melanoma was determined as 10.2 µM; with MDA-MB-435, 8.91 µM; with SF-539 CNS, 15.5 µM; in the assay on A498 renal, 20.5 µM; in the assay on DU-145 prostate, 23.1 µM; in the assay on NCI-H460 lung, 27.4 µM.
Regarding `COC(=O)C1=C(C)NC(=O)N2[C@@H](CCOCc3ccccc3)CC[C@@H]12`, the TGI in the assay on LOX IMVI melanoma, with SW-620 colon, in the assay with HCC-2998 colon, with CAKI-1 renal, in the assay with MDA-MB-231 breast and in the assay on SNB-19 CNS was over 50 µM each time. Besides, the TGI with M14 melanoma, with MDA-MB-435, in the assay with SF-539 CNS, in the assay with A498 renal, in the assay on DU-145 prostate and in the assay with NCI-H460 lung was over 50 µM each time.
As to `COc1ccc(S(=O)(=O)Nc2ccc(-c3csc(N4C(=O)/C(=C/c5ccccc5[N+](=O)[O-])N=C4c4ccccc4)n3)cc2)cc1Cl`, the TGI in the assay on LOX IMVI melanoma is over 100 µM; in the assay with SW-620 colon, over 100 µM; in the assay with HCC-2998 colon, 63.5 µM; with CAKI-1 renal, over 100 µM; in the assay with MDA-MB-231 breast it was 78.5 µM; in the assay on SNB-19 CNS, over 100 µM. In addition, the TGI in the assay on M14 melanoma is over 100 µM; in the assay on MDA-MB-435, over 100 µM; with SF-539 CNS, over 100 µM; with A498 renal it was 59.8 µM; in the assay with DU-145 prostate it was over 100 µM; in the assay with NCI-H460 lung, over 100 µM.
Regarding `C=C1C(C(=O)OC)[C@H]1C(=O)OC` (some centres not stated), the TGI with LOX IMVI melanoma, in the assay on SW-620 colon, in the assay on HCC-2998 colon, in the assay with CAKI-1 renal, with MDA-MB-231 breast and with SNB-19 CNS was over 100 µM throughout. Moreover, the TGI in the assay on M14 melanoma, in the assay on MDA-MB-435, in the assay with SF-539 CNS, in the assay on A498 renal, in the assay with DU-145 prostate and in the assay on NCI-H460 lung was over 100 µM each time.
